What was measured:
Type in all cases: functional
[1] = organism: Oryctolagus cuniculus; assay: The compound was evaluated for the inhibition of Na+-dependent [3H]taurocholate uptake into ileal brush border membrane vesicles in rabbit, by 75%
[2] = organism: Oryctolagus cuniculus; assay: The compound was evaluated for the inhibition of Na+-dependent [3H]taurocholate uptake into ileal brush border membrane vesicles in rabbit, by 50%
[3] = tested on: Rattus norvegicus; assay: The compound was evaluated for the percentage inhibition of ileal taurocholate transport, in anesthetized wistar rats at 12 min
[4] = tested on: Rattus norvegicus; assay: The compound was evaluated for the percentage inhibition of ileal taurocholate transport, in anesthetized wistar rats at 30 min
[5] = tested on: Rattus norvegicus; assay: The compound was evaluated for the percentage inhibition of ileal taurocholate transport, in anesthetized wistar rats at 60 min
[6] = organism: Oryctolagus cuniculus; assay: The compound was evaluated for the inhibition of Na+-dependent [3H]taurocholate uptake into ileal brush border membrane vesicles in rabbit, by 25%
[7] = organism: Oryctolagus cuniculus; assay: The compound was evaluated for the inhibition of Na+-dependent [3H]taurocholate uptake into ileal brush border membrane vesicles in rabbit; by 75%
[8] = organism: Oryctolagus cuniculus; assay: The compound was evaluated for the inhibition of Na+ dependent [3H]taurocholate uptake into ileal brush border membrane vesicles in rabbit; by 25%
[9] = organism: Oryctolagus cuniculus; assay: The compound was evaluated for the inhibition of Na+-dependent [3H]taurocholate uptake into ileal brush border membrane vesicles in rabbit; by 50%
[10] = tested on: Rattus norvegicus; assay: The compound was evaluated for the percentage inhibition of ileal taurocholate transport; in anesthetized wistar rats at 12 min

CC(CCC(=O)N[C@H]1CC[C@@]2(C)[C@@H](C1)C[C@@H](O)[C@@H]1[C@@H]2C[C@H](O)[C@]2(C)C(C(C)CCC(=O)O)CC[C@@H]12)C1CC[C@H]2[C@@H]3[C@H](O)C[C@@H]4C[C@H](O)CC[C@]4(C)[C@H]3C[C@H](O)[C@]12C (stereo partly specified)
IC75 [1]: 84 µM
IC50 [2]: 48 µM
Inhibition [3]: 51%
Inhibition [4]: 59%
Inhibition [5]: 54%
IC25 [6]: 24 µM

CC(CCC(=O)O)C1CC[C@H]2[C@@H]3[C@H](O)C[C@@H]4C[C@@H](OCCNC(=O)CCC(C)C5CC[C@H]6[C@@H]7[C@H](O)C[C@@H]8C[C@H](OC(c9ccccc9)c9ccccc9)CC[C@]8(C)[C@H]7C[C@H](O)[C@]56C)CC[C@]4(C)[C@H]3C[C@H](O)[C@]12C (stereo partly specified)
IC75 [1]: > 250 µM
IC50 [2]: > 250 µM
IC25 [6]: 125 µM

C[C@H](CCC(=O)O)[C@H]1CC[C@H]2[C@@H]3[C@H](O)C[C@@H]4C[C@H](O)CC[C@]4(C)[C@H]3C[C@H](O)[C@]12C
IC75 [1]: 152 µM
IC25 [6]: 40 µM

CC(CCC(=O)O)C1CC[C@H]2[C@@H]3[C@H](O)C[C@@H]4C[C@@H](NC(=O)CCC(C)C5CC[C@H]6[C@@H]7CC[C@@H]8C[C@H](O)CC[C@]8(C)[C@H]7CC[C@]56C)CC[C@]4(C)[C@H]3C[C@H](O)[C@]12C (stereo partly specified)
IC75 [1]: > 250 µM
IC50 [2]: > 250 µM
IC25 [6]: 176 µM

CC(CCC(=O)O)C1CC[C@H]2[C@@H]3[C@H](O)C[C@@H]4C[C@@H](OCCNC(=O)CCC(=O)NCCCNC(=O)CCC(C)C5CC[C@H]6[C@@H]7[C@H](O)C[C@@H]8C[C@H](OC(c9ccccc9)c9ccccc9)CC[C@]8(C)[C@H]7C[C@H](O)[C@]56C)CC[C@]4(C)[C@H]3C[C@H](O)[C@]12C (stereo partly specified)
IC75 [1]: 30 µM
IC50 [2]: 19 µM
Inhibition [3]: 26%
Inhibition [4]: 16%
Inhibition [5]: 10%
IC25 [6]: 9 µM

CC(CCC(=O)NCCO[C@H]1CC[C@@]2(C)[C@@H](C1)C[C@@H](O)[C@@H]1[C@@H]2C[C@H](O)[C@]2(C)C(C(C)CCC(=O)O)CC[C@@H]12)C1CC[C@H]2[C@@H]3[C@H](O)C[C@@H]4C[C@H](O)CC[C@]4(C)[C@H]3C[C@H](O)[C@]12C (stereo partly specified)
IC75 [7]: 57 µM
IC25 [8]: 20 µM
IC50 [9]: 36 µM
Inhibition [4]: 23%
Inhibition [5]: 18%
Inhibition [10]: 23%

CC(CCC(=O)O)C1CC[C@H]2[C@@H]3[C@H](O)C[C@@H]4C[C@@H](OCCNC(=O)CCC(C)C5CC[C@H]6[C@@H]7CC[C@@H]8C[C@H](O)CC[C@]8(C)[C@H]7CC[C@]56C)CC[C@]4(C)[C@H]3C[C@H](O)[C@]12C (stereo partly specified)
IC75 [1]: > 250 µM
IC50 [2]: > 250 µM
IC25 [6]: 154 µM

C[C@H](CCC(=O)NCCS(=O)(=O)O)[C@H]1CC[C@H]2[C@@H]3[C@H](O)C[C@@H]4C[C@H](O)CC[C@]4(C)[C@H]3CC[C@]12C
IC75 [1]: 61 µM
IC25 [6]: 13 µM
